Measurements reported in article doi:10.1101/2021.12.18.473277v2 (biorxiv, 2022).

Legend:
HDAC1 = HDAC1 (Homo sapiens, UniProt Q13547); assay: continuous fluorogenic AMC assay, progression curves, kobs fit; assay type: biochemical
[1] = molecular target: HDAC3 (with DAD of NCoR2) (Homo sapiens, UniProt O15379); assay: fluorogenic activity assay with added InsP6; assay type: biochemical; conditions: activator; stabilises the HDAC3/NCoR2 DAD complex
HDAC3 (with DAD of NCoR2), sequence (O15379 whole entry): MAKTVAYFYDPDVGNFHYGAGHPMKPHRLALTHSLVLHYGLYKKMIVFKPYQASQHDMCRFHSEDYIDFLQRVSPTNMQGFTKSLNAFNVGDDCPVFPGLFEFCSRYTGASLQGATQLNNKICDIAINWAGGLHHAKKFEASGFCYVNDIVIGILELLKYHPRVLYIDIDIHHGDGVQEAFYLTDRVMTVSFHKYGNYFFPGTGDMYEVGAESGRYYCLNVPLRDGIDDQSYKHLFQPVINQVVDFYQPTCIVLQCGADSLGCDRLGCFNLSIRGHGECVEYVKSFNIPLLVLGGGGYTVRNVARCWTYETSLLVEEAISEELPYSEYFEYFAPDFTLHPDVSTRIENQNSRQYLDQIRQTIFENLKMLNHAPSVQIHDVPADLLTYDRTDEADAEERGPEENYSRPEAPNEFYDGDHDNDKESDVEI
HDAC3 (with DAD of NCoR2), sequence (Q9Y618 395-489 partner limits assumed): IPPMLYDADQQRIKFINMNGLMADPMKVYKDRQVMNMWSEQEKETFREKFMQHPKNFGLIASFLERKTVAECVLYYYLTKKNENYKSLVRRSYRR

HDAC1, sequence (Q13547 whole entry): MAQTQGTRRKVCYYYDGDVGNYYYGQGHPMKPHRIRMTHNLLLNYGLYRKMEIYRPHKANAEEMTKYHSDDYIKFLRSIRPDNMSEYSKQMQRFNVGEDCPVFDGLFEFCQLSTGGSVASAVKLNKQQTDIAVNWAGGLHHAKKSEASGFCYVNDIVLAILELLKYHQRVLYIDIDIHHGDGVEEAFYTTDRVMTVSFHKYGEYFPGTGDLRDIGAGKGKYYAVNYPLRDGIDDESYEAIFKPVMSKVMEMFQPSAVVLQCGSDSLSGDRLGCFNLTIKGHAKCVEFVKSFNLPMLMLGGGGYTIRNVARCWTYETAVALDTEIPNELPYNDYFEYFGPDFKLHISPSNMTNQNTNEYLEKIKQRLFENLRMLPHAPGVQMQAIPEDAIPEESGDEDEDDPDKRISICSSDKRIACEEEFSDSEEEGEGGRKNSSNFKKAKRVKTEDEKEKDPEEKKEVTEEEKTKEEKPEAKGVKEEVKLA

SMILES	Ki (HDAC1) [nM]	fluorogenic activity assay with added InsP6 [1]
CCCNNC(=O)c1ccc(CNC(=O)/C=C/c2ccccc2)cc1 [compound 5]	~40	–
O=P(O)(O)O[C@H]1[C@H](OP(=O)(O)O)[C@@H](OP(=O)(O)O)[C@H](OP(=O)(O)O)[C@@H](OP(=O)(O)O)[C@H]1OP(=O)(O)O [inositol hexaphosphate]	–	Addition of InsP6 enhanced HDAC activity
